# Reference: EP0450097B1, “BENZOHETEROCYCLIC COMPOUNDS” (OTSUKA PHARMACEUTICAL CO., LTD., priority 1989, dated 1991)
# Target: T1, V₂ receptor (Rattus norvegicus, UniProt Q00788)
# T1 construct: Using rat kidney plasma membrane preparations; from tissue; host or cells: rat kidney plasma membranes
# Test: V₂ receptor binding assay ([³H]-Arg-vasopressin, rat kidney plasma membrane preparations)
# Conditions: 4°C for 3 hours
# Procedure: Using rat kidney plasma membrane preparations prepared according to O. Hechter's method [cf: J. Bio. […] After incubation, the mixture is filtered using the glass filter (GF/F) so as to separate the membrane preparation combined with vasopressin and then washed twice with the buffer (5 ml). This glass filter is taken out and mixed with liquid scintillation cocktail. The amount of [³H]-vasopressin combined with the membrane is measured by liquid scintillation counter and the rate of the inhibitory effect of the test compound is estimated according to the following equation. Rate of the inhibitory effect (%) = 100 -(C1 - B1)/(C0 - B1)X 100 [formula] C¹: The amount of [³H]-vasopressin combined with the membrane in the presence of the test compound (in prescribed amount). C⁰: The amount of [³H)-vasopressin combined with the membrane in the absence of the test compound. B¹: The amount of [³H]-vasopressin combined with the membrane in the presence of the excess amount of vasopressin (10⁻⁶ M).
# The results are expressed as IC₅₀ values, which is the concentration of the test compound required to achieve the inhibitory effect in the rate of 50 %.
# T1 sequence (Q00788 whole entry): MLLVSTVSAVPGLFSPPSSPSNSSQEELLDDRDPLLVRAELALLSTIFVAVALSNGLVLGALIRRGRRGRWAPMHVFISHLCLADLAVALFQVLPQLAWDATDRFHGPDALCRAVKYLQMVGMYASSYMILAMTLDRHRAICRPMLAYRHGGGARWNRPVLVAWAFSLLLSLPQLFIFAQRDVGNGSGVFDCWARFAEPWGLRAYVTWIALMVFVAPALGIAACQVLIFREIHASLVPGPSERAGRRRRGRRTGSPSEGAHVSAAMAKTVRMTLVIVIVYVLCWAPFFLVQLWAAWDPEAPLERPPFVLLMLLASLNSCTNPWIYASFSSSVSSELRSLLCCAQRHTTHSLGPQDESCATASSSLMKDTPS
row,IC50,SMILES
1,150 nM,COc1cc(NC(=O)c2ccccc2Cl)ccc1C(=O)N1CCCC(N(C)C)c2ccccc21 (stereo not drawn) [compound 177]
2,34 nM,CN(C)C1CCCN(C(=O)c2ccc(NC(=O)c3ccccc3Cl)cc2)c2ccccc21 (stereo not drawn) [compound 180]
3,38 nM,CNC1CCCN(C(=O)c2ccc(NC(=O)c3ccccc3Cl)cc2)c2ccccc21 (stereo not drawn) [compound 181]
4,5 nM,CNC1CCCN(C(=O)c2ccc(NC(=O)c3ccccc3C)cc2Cl)c2ccccc21 (stereo not drawn) [compound 182]
5,260 nM,COc1cc(NC(=O)c2ccccc2C)ccc1C(=O)N1CCCC(N(C)C)c2ccccc21 (stereo not drawn) [compound 183]
6,23 nM,CN(C)C1CCCN(C(=O)c2ccc(NC(=O)c3ccccc3Cl)cc2Cl)c2ccccc21 (stereo not drawn) [compound 184]
7,30 nM,O=C(Nc1ccc(C(=O)N2CCCC(NC3CC3)c3ccccc32)c(Cl)c1)c1ccc(Cl)cc1Cl (stereo not drawn) [compound 186]
8,87 nM,CN(C)C1CCCN(C(=O)c2ccc(NC(=O)c3ccccc3Cl)c(OC(=O)c3ccccc3Cl)c2)c2ccccc21 (stereo not drawn) [compound 189]
9,82 nM,C=CCN(C)C1CCCN(C(=O)c2ccc(NC(=O)c3ccccc3C)cc2Cl)c2ccccc21 (stereo not drawn) [compound 190]
10,9 nM,Cc1ccccc1C(=O)Nc1ccc(C(=O)N2CCCC(OC(N)=O)c3ccccc32)cc1 (stereo not drawn) [compound 191]
11,990 nM,Cc1ccccc1C(=O)Nc1ccc(C(=O)N2CCCC(N(C)C)c3ccccc32)c(N(C)C)c1 (stereo not drawn) [compound 197]
12,40 nM,CNC1CCCN(C(=O)c2ccc(NC(=O)c3ccccc3C(F)(F)F)cc2Cl)c2ccccc21 (stereo not drawn) [compound 198]
13,24 nM,O=C(Nc1ccc(C(=O)N2CCCC(NC3CC3)c3ccccc32)c(Cl)c1)c1ccccc1Cl (stereo not drawn) [compound 200]
14,23 nM,C=CCNC1CCCN(C(=O)c2ccc(NC(=O)c3ccccc3C)cc2Cl)c2ccccc21 (stereo not drawn) [compound 201]
15,140 nM,O=C(Nc1ccc(C(=O)N2CCCC(N3CCCCC3)c3ccccc32)cc1)c1ccccc1Cl (stereo not drawn) [compound 202]
16,70 nM,O=C(Nc1ccc(C(=O)N2CCCC(N3CCN(Cc4ccccc4)CC3)c3ccccc32)cc1)c1ccccc1Cl (stereo not drawn) [compound 203]
17,110 nM,O=C(Nc1ccc(C(=O)N2CCCC(N3CCCC3)c3ccccc32)cc1)c1ccccc1Cl (stereo not drawn) [compound 204]
18,74 nM,CC(=O)N1CCN(C2CCCN(C(=O)c3ccc(NC(=O)c4ccccc4Cl)cc3)c3ccccc32)CC1 (stereo not drawn) [compound 205]
19,88 nM,CN1CCN(C2CCCN(C(=O)c3ccc(NC(=O)c4ccccc4Cl)cc3)c3ccccc32)CC1 (stereo not drawn) [compound 206]
20,4 nM,Cc1ccccc1C(=O)Nc1ccc(C(=O)N2CCCC(O)c3ccccc32)c(Cl)c1 (stereo not drawn) [compound 210]
21,35 nM,CN(C)C1CCCN(C(=O)c2ccc(NC(=O)c3ccccc3F)cc2)c2ccccc21 (stereo not drawn) [compound 212]
22,33 nM,CN(C)C1CCCN(C(=O)c2ccc(NC(=O)c3ccc(F)cc3F)cc2)c2ccccc21 (stereo not drawn) [compound 213]
23,910 nM,CN(C)C1c2ccccc2N(C(=O)c2ccc(NC(=O)c3ccccc3Cl)cc2)CCC1O (stereo not drawn) [compound 216]
24,370 nM,Cc1ccccc1C(=O)Nc1ccc(C(=O)N2CC=Cc3ccccc32)cc1 [compound 217]

row,IC50,SMILES
1,22 nM,Cc1ccccc1C(=O)Nc1ccc(C(=O)N2CCCC(N(C)C)c3ccccc32)c(C)c1 (stereo not drawn) [compound 218]
2,23 nM,Cc1cc(NC(=O)c2ccccc2Cl)ccc1C(=O)N1CCCC(N(C)C)c2ccccc21 (stereo not drawn) [compound 219]
3,26 nM,Cc1cc(NC(=O)c2ccc(Cl)cc2Cl)ccc1C(=O)N1CCCC(N(C)C)c2ccccc21 (stereo not drawn) [compound 220]
4,24 nM,CCN(CC(=O)Nc1ccc(C(=O)N2CCCC(NC)c3ccccc32)c(Cl)c1)c1ccccc1 (stereo not drawn) [compound 221]
5,22 nM,CN(C)C1CCCN(C(=O)c2ccc(NC(=O)c3ccccc3Cl)cc2F)c2ccccc21 (stereo not drawn) [compound 223]
6,380 nM,CNC1c2ccccc2N(C(=O)c2ccc(NC(=O)c3ccccc3Cl)cc2Cl)CCC1O (stereo not drawn) [compound 224]
7,30 nM,Cc1ccccc1C(=O)Nc1ccc(C(=O)N2CCCC(O)(CO)c3ccccc32)c(Cl)c1 (stereo not drawn) [compound 225]
8,19 nM,Cc1ccccc1C(=O)Nc1ccc(C(=O)N2CCCC(N(C)C)c3ccccc32)c(F)c1 (stereo not drawn) [compound 226]
9,29 nM,Cc1cc(C(=O)N2CCCC(N(C)C)c3ccccc32)ccc1NC(=O)c1ccc(Cl)cc1Cl (stereo not drawn) [compound 227]
10,29 nM,CCN(C)C1CCCN(C(=O)c2ccc(NC(=O)c3ccccc3C)cc2)c2ccccc21 (stereo not drawn) [compound 228]
11,29 nM,CCNC1CCCN(C(=O)c2ccc(NC(=O)c3ccccc3C)cc2)c2ccccc21 (stereo not drawn) [compound 229]
12,20 nM,CN(C)C1CCCN(C(=O)c2ccc(NC(=O)c3cc(F)cc(F)c3)cc2)c2ccccc21 (stereo not drawn) [compound 230]
13,20 nM,Cc1ccccc1C(=O)Nc1ccc(C(=O)N2CCCC(N(C)C)c3ccccc32)cc1F (stereo not drawn) [compound 232]
14,150 nM,COC1(OC)CCN(C(=O)c2ccc(NC(=O)c3ccccc3C)cc2)c2ccccc2C1 [compound 233]
15,140 nM,CC(=O)ON=C1CCCN(C(=O)c2ccc(NC(=O)c3ccccc3Cl)cc2)c2ccccc21 [compound 234]
16,41 nM,Cc1ccccc1C(=O)Nc1ccc(C(=O)N2CCCC(O)(CO)c3ccccc32)cc1 (stereo not drawn) [compound 237]
17,170 nM,CN(C)C1CCCN(C(=O)c2ccc(NC(=O)c3ccccc3OCC(N)=O)cc2)c2ccccc21 (stereo not drawn) [compound 239]
18,60 nM,COc1cc(C(=O)N2CCCC(N(C)C)c3ccccc32)ccc1NC(=O)c1ccc(Cl)cc1Cl (stereo not drawn) [compound 248]
19,94 nM,CN1CC(=O)OC2CCN(C(=O)c3ccc(NC(=O)c4ccccc4Cl)cc3)c3ccccc3C21 (stereo not drawn) [compound 251]
20,52 nM,NC1CCCN(C(=O)c2ccc(NC(=O)c3ccccc3Cl)cc2)c2ccccc21 (stereo not drawn) [compound 253]
21,16 nM,Cc1ccccc1C(=O)Nc1ccc(C(=O)N2CCC(C)C(N(C)C)c3ccccc32)cc1 (stereo not drawn) [compound 254]
22,45 nM,O=C(Nc1ccc(C(=O)N2CCCC(NCCc3ccccn3)c3ccccc32)cc1)c1ccccc1Cl (stereo not drawn) [compound 257]
23,200 nM,Cc1ccccc1C(=O)Nc1ccc(C(=O)N2CCCC(N(C)S(C)(=O)=O)c3ccccc32)cc1 (stereo not drawn) [compound 258]
24,130 nM,CCOC(=O)NC1CCCN(C(=O)c2ccc(NC(=O)c3ccccc3C)cc2)c2ccccc21 (stereo not drawn) [compound 260]

row,IC50,SMILES
1,11 nM,Cc1ccccc1C(=O)Nc1ccc(C(=O)N2CCCC(C)(O)c3ccccc32)cc1 (stereo not drawn) [compound 261]
2,29 nM,CCOC(=O)CN(C)C1CCCN(C(=O)c2ccc(NC(=O)c3ccccc3C)cc2)c2ccccc21 (stereo not drawn) [compound 262]
3,53 nM,Cc1ccccc1C(=O)Nc1ccc(C(=O)N2CCCC(NC3CCCC3)c3ccccc32)c(Cl)c1 (stereo not drawn) [compound 263]
4,30 nM,Cc1ccccc1C(=O)Nc1ccc(C(=O)N2CCCC(N(C)CC(O)CO)c3ccccc32)cc1 (stereo not drawn) [compound 264]
5,25 nM,Cc1ccccc1C(=O)Nc1ccc(C(=O)N2CCCC(N(C)CC#N)c3ccccc32)cc1 (stereo not drawn) [compound 265]
6,120 nM,Cc1ccccc1C(=O)Nc1ccc(C(=O)N2CCCC(N(C)CCCOC3CCCCO3)c3ccccc32)cc1 (stereo not drawn) [compound 267]
7,18 nM,Cc1ccccc1C(=O)Nc1ccc(C(=O)N2CCCC(CN(C)C)c3ccccc32)cc1 (stereo not drawn) [compound 268]
8,380 nM,Cc1ccccc1C(=O)Nc1ccc(C(=O)N2CCCC(NN)c3ccccc32)cc1 (stereo not drawn) [compound 282]
9,96 nM,CNC(=O)NC1CCCN(C(=O)c2ccc(NC(=O)c3ccccc3C)cc2)c2ccccc21 (stereo not drawn) [compound 283]
10,71 nM,CN(C)C1CCCN(C(=O)c2ccc(NC(=O)c3cccc([N+](=O)[O-])c3)cc2)c2ccccc21 (stereo not drawn) [compound 289]
11,130 nM,CNCC(=O)NC1CCCN(C(=O)c2ccc(NC(=O)c3ccccc3C)cc2)c2ccccc21 (stereo not drawn) [compound 291]
12,180 nM,CN(C)C1CCCN(C(=O)c2ccc(NC(=O)c3cccc(N)c3)cc2)c2ccccc21 (stereo not drawn) [compound 292]
13,330 nM,CCN(CC)CCOc1cc(C(=O)N2CCCC(N(C)C)c3ccccc32)ccc1NC(=O)c1ccccc1C (stereo not drawn) [compound 294]
14,26 nM,Cc1ccccc1C(=O)Nc1ccc(C(=O)N2CCCC(N(C)CC(=O)N(C)C)c3ccccc32)cc1 (stereo not drawn) [compound 295]
15,51 nM,Cc1ccccc1C(=O)Nc1ccc(C(=O)N2CCCC(N(C)C(=O)Cn3ccnc3)c3ccccc32)cc1 (stereo not drawn) [compound 297]
16,220 nM,Cc1ccccc1C(=O)Nc1ccc(C(=O)N2CCCC(NC(=O)CN)c3ccccc32)cc1 (stereo not drawn) [compound 299]
17,480 nM,CC(=O)Nc1cccc(C(=O)Nc2ccc(C(=O)N3CCCC(N(C)C)c4ccccc43)cc2)c1 (stereo not drawn) [compound 300]
18,140 nM,Cc1ccccc1C(=O)Nc1ccc(C(=O)N2CCCC(NC(=O)CNC(=O)OC(C)(C)C)c3ccccc32)cc1 (stereo not drawn) [compound 301]
19,38 nM,CN(C)C1CCCN(C(=O)c2ccc(NC(=O)Cc3ccccc3)cc2)c2ccccc21 (stereo not drawn) [compound 305]
20,77 nM,CN(C)C1CCCN(C(=O)c2ccc(NC(=O)CCc3ccccc3)cc2)c2ccccc21 (stereo not drawn) [compound 306]
21,96 nM,CCN(C)C1CCCN(C(=O)c2ccc(NC(=O)c3ccccc3Cl)cc2Cl)c2ccccc21 (stereo not drawn) [compound 314]
22,72 nM,Cc1ccccc1N(C)CC(=O)Nc1ccc(C(=O)N2CCCC(N(C)C)c3ccccc32)cc1 (stereo not drawn) [compound 317]
23,60 nM,CNC1CCCN(C(=O)c2ccc(NC(=O)c3ccccc3C)cc2)c2c(Cl)cccc21 (stereo not drawn) [compound 318]
24,58 nM,CN(C)C1CCCN(C(=O)c2ccc(NC(=O)COc3ccccc3)cc2)c2ccccc21 (stereo not drawn) [compound 319]
